Assay results from US20030068386A1, “Method of treating cancerous disease” (priority 2001, published 2003).

How the values were obtained:
[1] = tested on: normal human fibroblasts; test: AS-induced toxicity to normal human fibroblasts, crystal violet cell number; format: cell-based; conditions: for effect on AS cytotoxicity to human fibroblasts: ascorbic acid 5 mM, POBN 10 mM, DMSO 0.2 M in incubation medium
Experimental: Human fetal fibroblasts were cultured as described herein. Briefly, human fetal hearts of gestational age 16-24 weeks are aseptically obtained after elective termination of normal pregnancy by dilatation and evacuation. The aorta is then cannulated for continuous perfusion of the coronary arteries with calcium-free Tyrode's solution (117 mM NaCl, 5.7 mM KCl, 11 mM glucose, 4.4 mM NaHCO3, 1.5 mM KH2PO4, 1.7 mM MgCl2, HEPES 20 mM, pH 7.4) containing 1 U/ml of Na-heparin at 37° C., bubbled with 100% O2 as described for the Langendorff preparation. After 15 min of washing to clear the blood from the heart, fresh calcium-free Tyrode's solution containing 1.5 mg/ml collagenase A (type III) is recirculated for approximately 20 minutes. The heart dissociates spontaneously, allowing cells to slowly drip and fall on a Petri dish containing 0.25% trypsin, 1 mM EDTA in HBSS. Clumps of cells are dissociated and the resulting suspension poured over a cell strainer. Cells are centrifuged and the pellet resuspended in 20 ml of culture medium [DME supplemented with 10% fetal bovine serum, 50 U/ml PCN, 50 U/ml streptomycin, […] gentamicin, 1 mM non-essential amino acid (Gibco Laboratories), 0.1 mM essential medium vitamins (Gibco Laboratories), 2 mM glutamine, 0.1 mM Na pyruvate]. To obtain primary cardiac fibroblasts, the isolate will be plated in flasks (20 min at 37° C.). The fibroblasts will be passaged at 12×10^6 cells per 75 cm2 culture flask and grown in 5% CO2 at 37° C. After 3 passages in culture, the fibroblast stain using the fibroblast-specific antibody (monoclonal anti-human fibroblast surface protein, Clone 1B10).
The concentration of the hydroxylamine was determined by co-injection of 4-methylpicoline as described in Analytical Chemistry, Stoyanovsky, et al., supra. […] Normal human fibroblasts (800 cells per plate) were treated for 30 minutes at 37° C. with AS in 50 mM phosphate buffer (pH 6.3, open circles; pH 7.4, filled circles) containing 0.15 M NaCl and 0.2 mM CaC12. Thereafter, the fluid was removed, the cells were covered with minimal essential medium containing 10% fetal bovine serum (Sigma Chem. Co.,St. Louis, Mo.) and incubated at 37° C.; after 4 hours, the cell number was determined by the crystal violet method as known by those skilled in the art. Results are from four independent experiments. Each experimental point represents the mean of triplicate±SEM % (Mean value±standard error; n=3) of controls. […] The cells were treated as indicated in FIG. 5B except that in the incubation medium was included (1) ascorbic acid (5 mM) plus SOD (superoxide dismuthase)(300 U per ml) plus catalase (500 U per ml) filled circles, all purchased from Sigma Chem. Co.; (2) POBN (10 mM) open circles; or 3. DMSO ([…]) filled triangles.

[2] = tested on: breast cancer cells (BRCA1, OMIM Number 113705); test: AS-induced toxicity to breast cancer cells, crystal violet cell number; format: cell-based, human
[3] = cited from earlier work

Compound: [Na+].[Na+].[O-][N+]([O-])=NO [AS, sodium trioxodinitrate]
- toxicity to normal human fibroblasts ([1]; acidic conditions): toxic
- toxicity to normal human fibroblasts ([1]; non-acidic conditions): not toxic
- cell toxicity ([1]; pH 7.4): not observed
- death of treated cells ([2]; pH 6.2, 30 minutes at 37° C. with AS, cell number after 4 hours): approximately 70%
- cell toxicity ([2]; pH 7.4): not observed
- stability ([3]; alkaline solutions): relatively stable
- pK1 ([3]; aqueous solution): 3.0
- pK2 ([3]; aqueous solution): 9.35
- rate of decomposition ([3]; pH interval of 3.5 to 8.5): rapid, proton-independent

Compound: C[S+](C)[O-] [DMSO, dimethyl sulfoxide, reference compound]
- effect on AS cytotoxicity to human fibroblasts [1]: protective effect

Compound: CC(C)(C)[N+]([O-])=Cc1cc[n+]([O-])cc1 [POBN, alpha-(4-Pyridyl-1-oxide)-N-tert-butylnitrone, reference compound]
- effect on AS cytotoxicity to human fibroblasts [1]: protective effect

Compound: O=C1O[C@H]([C@@H](O)CO)C(O)=C1O [ascorbic acid, reference compound]
- effect on AS cytotoxicity to human fibroblasts [1]: protective effect
